Several values for one entry are separate records, joined by “and”; a condition that tells them apart may be missing. Identical values can stand only once.
Key:
[1] = target: Serine/threonine-protein kinase mTOR (Homo sapiens) (UniProt P42345); assay: Enzymatic radiometric [Km ATP] KinaseProfiler LeadHunter assay, kinase: mTOR, catalogue number: 14-769KP The assay has been performed by Eurofins Discovery.; conditions: ATP concentration 70.0 uM, Test compound concentration 10.0 uM
[2] = target: Ribosomal protein S6 kinase alpha-4 (Homo sapiens) (UniProt O75676); assay: Enzymatic radiometric [Km ATP] KinaseProfiler LeadHunter assay, kinase: MSK2, catalogue number: 14-616KP The assay has been performed by Eurofins Discovery.; conditions: ATP concentration 45.0 uM, Test compound concentration 10.0 uM
Sequence of Ribosomal protein S6 kinase alpha-4 (Homo sapiens) (O75676 whole entry, looked up): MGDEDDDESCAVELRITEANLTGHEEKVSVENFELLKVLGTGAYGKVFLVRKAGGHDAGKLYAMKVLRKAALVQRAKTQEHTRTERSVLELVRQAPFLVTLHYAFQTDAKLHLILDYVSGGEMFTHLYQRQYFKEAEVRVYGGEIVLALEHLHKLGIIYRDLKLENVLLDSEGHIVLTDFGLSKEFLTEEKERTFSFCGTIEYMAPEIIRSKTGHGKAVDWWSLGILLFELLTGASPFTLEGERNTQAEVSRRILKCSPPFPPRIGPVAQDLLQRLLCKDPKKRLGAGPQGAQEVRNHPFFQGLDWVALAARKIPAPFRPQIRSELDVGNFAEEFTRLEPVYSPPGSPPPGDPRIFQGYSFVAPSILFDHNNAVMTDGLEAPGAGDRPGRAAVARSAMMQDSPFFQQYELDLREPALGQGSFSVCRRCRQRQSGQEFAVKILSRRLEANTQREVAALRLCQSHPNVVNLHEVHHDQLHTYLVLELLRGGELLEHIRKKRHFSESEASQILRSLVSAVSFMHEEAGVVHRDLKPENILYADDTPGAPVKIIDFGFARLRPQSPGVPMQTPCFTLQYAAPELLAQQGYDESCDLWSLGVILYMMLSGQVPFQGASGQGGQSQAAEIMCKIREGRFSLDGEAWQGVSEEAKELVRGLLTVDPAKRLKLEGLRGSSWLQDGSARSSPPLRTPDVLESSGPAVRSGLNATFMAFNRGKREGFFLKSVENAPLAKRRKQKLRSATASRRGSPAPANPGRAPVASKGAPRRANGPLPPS

[3] = target: T1, Serine/threonine-protein kinase 17A (Homo sapiens) (UniProt Q9UEE5); assay: Enzymatic radiometric [Km ATP] KinaseProfiler LeadHunter assay, kinase: DRAK1, catalogue number: 14-668KP The assay has been performed by Eurofins Discovery.; conditions: ATP concentration 10.0 uM, Test compound concentration 10.0 uM
T1 sequence (whole entry): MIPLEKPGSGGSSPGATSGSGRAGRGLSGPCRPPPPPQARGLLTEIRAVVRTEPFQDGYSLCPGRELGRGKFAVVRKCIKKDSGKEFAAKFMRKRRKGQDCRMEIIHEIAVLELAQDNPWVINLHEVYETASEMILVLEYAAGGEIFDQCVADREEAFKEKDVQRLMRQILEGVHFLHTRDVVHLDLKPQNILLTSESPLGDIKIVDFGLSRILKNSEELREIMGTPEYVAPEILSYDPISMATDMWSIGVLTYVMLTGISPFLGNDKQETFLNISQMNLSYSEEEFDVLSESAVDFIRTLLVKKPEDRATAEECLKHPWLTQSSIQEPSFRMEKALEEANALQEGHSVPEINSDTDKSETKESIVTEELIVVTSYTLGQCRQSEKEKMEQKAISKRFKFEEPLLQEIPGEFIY

[4] = target: T2, Aurora kinase A (Homo sapiens) (UniProt O14965); assay: Enzymatic radiometric [Km ATP] KinaseProfiler LeadHunter assay, kinase: Aurora-A, catalogue number: 14-511KP The assay has been performed by Eurofins Discovery.; conditions: ATP concentration 15.0 uM, Test compound concentration 10.0 uM
T2 sequence (whole entry): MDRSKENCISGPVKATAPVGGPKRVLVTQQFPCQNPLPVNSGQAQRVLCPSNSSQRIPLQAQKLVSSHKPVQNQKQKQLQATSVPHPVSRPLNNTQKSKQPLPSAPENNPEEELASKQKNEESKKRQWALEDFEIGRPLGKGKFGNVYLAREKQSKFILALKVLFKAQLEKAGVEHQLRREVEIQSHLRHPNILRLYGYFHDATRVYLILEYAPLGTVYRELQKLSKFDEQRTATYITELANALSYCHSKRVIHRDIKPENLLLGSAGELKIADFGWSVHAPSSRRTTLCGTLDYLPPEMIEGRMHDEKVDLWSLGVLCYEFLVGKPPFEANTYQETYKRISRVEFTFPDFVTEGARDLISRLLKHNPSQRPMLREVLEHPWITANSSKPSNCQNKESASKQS

[5] = target: Casein kinase II subunit alpha' (Homo sapiens) (UniProt P19784); assay: Enzymatic radiometric [Km ATP] KinaseProfiler LeadHunter assay, kinase: CK2-alpha2, catalogue number: 14-689KP The assay has been performed by Eurofins Discovery.; conditions: ATP concentration 10.0 uM, Test compound concentration 10.0 uM
Sequence of Casein kinase II subunit alpha' (Homo sapiens) (P19784 whole entry, looked up): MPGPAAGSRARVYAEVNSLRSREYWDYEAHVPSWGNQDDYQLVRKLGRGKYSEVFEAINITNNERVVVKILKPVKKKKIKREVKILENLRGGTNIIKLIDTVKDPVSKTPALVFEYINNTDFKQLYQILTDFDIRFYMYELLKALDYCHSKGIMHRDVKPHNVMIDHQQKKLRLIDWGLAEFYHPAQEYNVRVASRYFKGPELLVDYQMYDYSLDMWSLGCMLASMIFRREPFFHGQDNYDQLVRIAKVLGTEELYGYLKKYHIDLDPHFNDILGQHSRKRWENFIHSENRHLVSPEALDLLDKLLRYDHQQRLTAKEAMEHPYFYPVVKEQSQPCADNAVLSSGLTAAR

[6] = target: Protein kinase C theta type (Homo sapiens) (UniProt Q04759); assay: Enzymatic radiometric [Km ATP] KinaseProfiler LeadHunter assay, kinase: PKC-theta, catalogue number: 14-444KP The assay has been performed by Eurofins Discovery.; conditions: ATP concentration 15.0 uM, Test compound concentration 10.0 uM
[7] = target: PI3-kinase p110-alpha/p85-alpha (Homo sapiens) (UniProt P27986+P42336); assay: Enzymatic radiometric [Km ATP] KinaseProfiler LeadHunter assay, kinase: PI3 Kinase (p110-alpha/p85-alpha), catalogue number: 14-602KP The assay has been performed by Eurofins Discovery.; assay type: protein-complex assay; conditions: ATP concentration 200.0 uM, Test compound concentration 10.0 uM
[8] = target: Mitogen-activated protein kinase kinase kinase 9 (Homo sapiens) (UniProt P80192); assay: Enzymatic radiometric [Km ATP] KinaseProfiler LeadHunter assay, kinase: MLK1, catalogue number: 14-690KP The assay has been performed by Eurofins Discovery.; conditions: ATP concentration 45.0 uM, Test compound concentration 10.0 uM
Sequence of Mitogen-activated protein kinase kinase kinase 9 (Homo sapiens) (P80192 whole entry, looked up): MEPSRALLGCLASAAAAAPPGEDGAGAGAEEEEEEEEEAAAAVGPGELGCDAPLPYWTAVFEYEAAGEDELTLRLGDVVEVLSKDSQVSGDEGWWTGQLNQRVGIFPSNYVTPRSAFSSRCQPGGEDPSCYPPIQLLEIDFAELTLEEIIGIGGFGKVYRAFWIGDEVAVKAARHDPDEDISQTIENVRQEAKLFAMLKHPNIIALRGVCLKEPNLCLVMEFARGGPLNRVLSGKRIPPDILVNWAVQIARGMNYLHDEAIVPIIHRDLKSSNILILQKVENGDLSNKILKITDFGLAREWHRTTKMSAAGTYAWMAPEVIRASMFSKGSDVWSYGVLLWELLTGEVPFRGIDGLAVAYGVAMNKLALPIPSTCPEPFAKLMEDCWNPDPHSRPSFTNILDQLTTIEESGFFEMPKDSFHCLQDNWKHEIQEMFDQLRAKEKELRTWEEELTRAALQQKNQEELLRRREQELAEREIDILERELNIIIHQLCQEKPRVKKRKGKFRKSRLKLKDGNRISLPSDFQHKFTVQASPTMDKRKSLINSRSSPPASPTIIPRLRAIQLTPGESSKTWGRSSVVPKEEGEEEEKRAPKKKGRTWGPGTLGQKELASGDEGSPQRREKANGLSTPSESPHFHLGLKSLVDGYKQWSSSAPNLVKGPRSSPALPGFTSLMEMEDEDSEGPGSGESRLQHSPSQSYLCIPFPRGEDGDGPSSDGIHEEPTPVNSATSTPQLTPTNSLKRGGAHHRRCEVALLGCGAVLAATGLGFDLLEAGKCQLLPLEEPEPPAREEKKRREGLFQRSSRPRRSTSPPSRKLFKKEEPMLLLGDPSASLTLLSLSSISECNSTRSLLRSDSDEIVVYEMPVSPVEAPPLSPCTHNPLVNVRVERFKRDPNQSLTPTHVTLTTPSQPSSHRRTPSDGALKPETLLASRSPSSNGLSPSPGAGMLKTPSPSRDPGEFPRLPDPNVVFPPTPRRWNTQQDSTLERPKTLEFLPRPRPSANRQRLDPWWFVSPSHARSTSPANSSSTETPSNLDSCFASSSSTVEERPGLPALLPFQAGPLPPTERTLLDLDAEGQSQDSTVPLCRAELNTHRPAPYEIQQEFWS

[9] = target: Vascular endothelial growth factor receptor 2 (Homo sapiens) (UniProt P35968); assay: Enzymatic radiometric [Km ATP] KinaseProfiler LeadHunter assay, kinase: KDR, catalogue number: 14-630KP The assay has been performed by Eurofins Discovery.; conditions: ATP concentration 90.0 uM, Test compound concentration 10.0 uM
Sequence of Vascular endothelial growth factor receptor 2 (Homo sapiens) (P35968 whole entry): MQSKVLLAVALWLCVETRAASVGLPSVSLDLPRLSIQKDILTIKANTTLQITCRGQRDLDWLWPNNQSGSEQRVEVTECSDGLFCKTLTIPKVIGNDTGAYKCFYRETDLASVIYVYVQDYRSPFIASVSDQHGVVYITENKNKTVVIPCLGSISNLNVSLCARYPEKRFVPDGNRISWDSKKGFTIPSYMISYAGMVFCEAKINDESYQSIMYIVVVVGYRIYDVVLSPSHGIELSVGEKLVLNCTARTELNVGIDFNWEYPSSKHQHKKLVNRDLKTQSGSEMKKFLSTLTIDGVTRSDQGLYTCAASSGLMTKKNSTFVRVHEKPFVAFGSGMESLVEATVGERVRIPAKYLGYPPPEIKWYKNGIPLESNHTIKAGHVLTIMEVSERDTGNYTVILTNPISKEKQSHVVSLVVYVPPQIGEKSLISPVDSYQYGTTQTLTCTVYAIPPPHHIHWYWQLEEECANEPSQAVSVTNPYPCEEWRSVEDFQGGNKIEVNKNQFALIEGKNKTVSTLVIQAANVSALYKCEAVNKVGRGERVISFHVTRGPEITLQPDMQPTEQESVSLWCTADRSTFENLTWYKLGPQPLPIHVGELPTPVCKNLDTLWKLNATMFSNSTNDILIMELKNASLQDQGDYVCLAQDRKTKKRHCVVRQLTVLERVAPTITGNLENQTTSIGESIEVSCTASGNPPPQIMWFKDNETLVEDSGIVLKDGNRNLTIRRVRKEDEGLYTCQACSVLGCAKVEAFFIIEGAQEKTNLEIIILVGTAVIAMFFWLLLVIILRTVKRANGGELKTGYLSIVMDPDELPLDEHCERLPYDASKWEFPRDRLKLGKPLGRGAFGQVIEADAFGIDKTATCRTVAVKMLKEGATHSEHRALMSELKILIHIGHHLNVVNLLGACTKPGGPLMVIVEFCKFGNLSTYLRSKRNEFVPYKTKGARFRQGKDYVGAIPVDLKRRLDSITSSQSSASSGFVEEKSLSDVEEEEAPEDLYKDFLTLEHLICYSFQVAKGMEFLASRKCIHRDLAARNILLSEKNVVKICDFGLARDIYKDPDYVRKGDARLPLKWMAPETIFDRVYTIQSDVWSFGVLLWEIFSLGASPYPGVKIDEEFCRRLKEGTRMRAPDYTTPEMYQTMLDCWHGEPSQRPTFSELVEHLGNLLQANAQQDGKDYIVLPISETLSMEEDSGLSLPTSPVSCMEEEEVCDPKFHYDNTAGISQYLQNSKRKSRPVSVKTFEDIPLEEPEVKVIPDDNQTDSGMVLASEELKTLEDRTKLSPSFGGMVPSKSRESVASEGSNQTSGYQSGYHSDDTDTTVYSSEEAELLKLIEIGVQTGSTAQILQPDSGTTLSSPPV

[10] = target: T3, Serine/threonine-protein kinase 4 (Homo sapiens) (UniProt Q13043); assay: Enzymatic radiometric [Km ATP] KinaseProfiler LeadHunter assay, kinase: MST1, catalogue number: 14-624KP The assay has been performed by Eurofins Discovery.; conditions: ATP concentration 90.0 uM, Test compound concentration 10.0 uM
T3 sequence (whole entry): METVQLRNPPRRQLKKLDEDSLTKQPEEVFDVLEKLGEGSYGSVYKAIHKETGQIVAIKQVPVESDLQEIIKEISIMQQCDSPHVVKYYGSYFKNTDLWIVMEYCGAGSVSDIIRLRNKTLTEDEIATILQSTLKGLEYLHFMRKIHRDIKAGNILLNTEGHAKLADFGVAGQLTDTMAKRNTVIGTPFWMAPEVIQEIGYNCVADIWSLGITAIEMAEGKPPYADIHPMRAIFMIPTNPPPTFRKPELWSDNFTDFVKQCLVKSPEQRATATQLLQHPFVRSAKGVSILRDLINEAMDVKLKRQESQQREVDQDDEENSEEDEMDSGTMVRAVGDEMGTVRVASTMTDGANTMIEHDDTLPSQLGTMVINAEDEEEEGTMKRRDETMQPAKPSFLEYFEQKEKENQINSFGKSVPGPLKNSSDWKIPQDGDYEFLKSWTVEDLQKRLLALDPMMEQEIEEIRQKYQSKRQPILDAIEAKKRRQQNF

[11] = target: Insulin-like growth factor 1 receptor (Homo sapiens) (UniProt P08069); assay: Enzymatic radiometric [Km ATP] KinaseProfiler LeadHunter assay, kinase: IGF-1R, catalogue number: 14-465KP The assay has been performed by Eurofins Discovery.; conditions: ATP concentration 200.0 uM, Test compound concentration 10.0 uM
Sequence of Insulin-like growth factor 1 receptor (Homo sapiens) (P08069 31-736 limits assumed): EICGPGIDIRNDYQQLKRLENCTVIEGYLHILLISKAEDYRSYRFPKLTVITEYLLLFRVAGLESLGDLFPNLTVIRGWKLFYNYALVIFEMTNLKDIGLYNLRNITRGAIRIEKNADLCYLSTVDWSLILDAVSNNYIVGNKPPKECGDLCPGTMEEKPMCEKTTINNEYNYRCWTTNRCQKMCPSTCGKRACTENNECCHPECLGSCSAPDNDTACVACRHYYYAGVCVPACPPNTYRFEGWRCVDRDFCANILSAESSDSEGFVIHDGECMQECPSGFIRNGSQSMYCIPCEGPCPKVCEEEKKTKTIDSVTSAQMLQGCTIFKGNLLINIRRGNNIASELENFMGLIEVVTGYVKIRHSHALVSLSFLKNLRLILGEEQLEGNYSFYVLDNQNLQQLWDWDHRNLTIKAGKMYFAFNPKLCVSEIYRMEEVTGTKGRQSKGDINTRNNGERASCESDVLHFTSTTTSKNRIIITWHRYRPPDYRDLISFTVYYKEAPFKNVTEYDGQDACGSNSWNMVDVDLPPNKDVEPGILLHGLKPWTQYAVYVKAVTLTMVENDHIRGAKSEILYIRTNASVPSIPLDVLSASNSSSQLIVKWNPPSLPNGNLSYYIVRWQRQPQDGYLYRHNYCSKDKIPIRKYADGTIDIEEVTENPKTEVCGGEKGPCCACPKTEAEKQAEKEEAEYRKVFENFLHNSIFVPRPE
Sequence of Insulin-like growth factor 1 receptor (Homo sapiens) (P08069 741-1367 limits assumed): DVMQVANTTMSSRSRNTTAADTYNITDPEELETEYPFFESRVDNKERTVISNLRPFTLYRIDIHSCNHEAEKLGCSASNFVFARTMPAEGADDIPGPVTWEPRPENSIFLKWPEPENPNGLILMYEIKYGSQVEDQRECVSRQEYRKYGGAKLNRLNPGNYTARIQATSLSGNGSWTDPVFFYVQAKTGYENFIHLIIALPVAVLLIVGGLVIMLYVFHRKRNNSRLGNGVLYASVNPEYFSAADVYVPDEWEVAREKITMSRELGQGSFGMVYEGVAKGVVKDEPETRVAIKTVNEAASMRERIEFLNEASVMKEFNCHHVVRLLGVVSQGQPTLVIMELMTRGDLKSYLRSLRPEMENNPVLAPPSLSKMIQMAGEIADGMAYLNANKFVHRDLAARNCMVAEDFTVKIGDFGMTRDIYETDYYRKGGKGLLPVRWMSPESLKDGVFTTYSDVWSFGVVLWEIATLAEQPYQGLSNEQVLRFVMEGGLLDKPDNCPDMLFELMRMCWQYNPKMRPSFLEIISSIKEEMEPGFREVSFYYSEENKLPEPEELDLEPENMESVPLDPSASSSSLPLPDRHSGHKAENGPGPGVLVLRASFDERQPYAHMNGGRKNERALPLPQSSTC

Structure (SMILES)	Activity [1]	Activity [2]	Activity [3]	Activity [4]	Activity [5]	Activity [6]	Activity [7]	Activity [8]	Activity [9]	Activity [10]	Activity [11]
Cn1ncc(-c2cc3c(N[C@@H](c4ccc5c(n4)OCCO5)C(C)(C)C)ncnc3[nH]2)c1C#N	105%	122%	108%	95%	92%	96%	75%	94%	83%	115%	77%
COc1ccc([C@@H](Cc2nnn[nH]2)NC(=O)c2ncnc3[nH]ccc23)cc1	95%	92%	111%	71%	88%	90%	101%	85%	79%	98%	106%
Cc1nn(C)cc1-c1cc2c(N[C@H](c3ccc4c(c3)S(=O)(=O)CCC4)C(C)C)ncnc2[nH]1	96%	105%	111%	55%	92%	106%	102%	79%	88%	115%	97%
CC(C)[C@H](Nc1ncnc2[nH]c(-c3cnn(C)c3C#N)cc12)c1ccc2c(n1)OCCO2	104%	114%	105%	53%	95%	96%	70%	73%	76%	120%	85%
CNCc1cc(-c2cc3c(N[C@@H](c4ccc5c(c4)S(=O)(=O)CCC5)C(C)C)ncnc3[nH]2)co1	105%	91%	86%	73%	90%	106%	99%	86%	88%	108%	99%
CNC(=O)Cn1cc(-c2cc3c(N[C@@H](c4ccc5c(c4)S(=O)(=O)CCC5)C(C)C)ncnc3[nH]2)cn1	104%	92%	111%	77%	88%	91%	102%	89%	91%	112%	105%
CC(C)[C@@H](Nc1ncnc2[nH]c(-c3cnn(C)c3C#N)cc12)c1ccc2c(n1)OCCO2	83% and 102%	103% and 122%	101% and 108%	44% and 58%	86% and 93%	93% and 111%	49% and 55%	81% and 82%	80% and 86%	103% and 121%	108% and 94%

The next lines start with the values.

Activity [1]	Activity [2]	Activity [3]	Activity [4]	Activity [5]	Activity [6]	Activity [7]	Activity [8]	Activity [9]	Activity [10]	Activity [11]	Structure (SMILES)
100%	90%	98%	72%	91%	100%	100%	86%	77%	121%	95%	C[C@H](C(=O)O)[C@@H](NC(=O)c1ncnc2[nH]ccc12)c1ccc(Br)cc1
102%	99%	96%	57%	90%	101%	104%	81%	82%	88%	88%	CC(C)[C@@H](Nc1ncnc2[nH]ccc12)c1ccc2c(c1)S(=O)(=O)CCC2
103%	93%	105%	97%	98%	102%	104%	96%	96%	122%	104%	CC(C)[C@@H](Nc1ncnc2[nH]c(C(=O)N[C@@H]3CCN(C)C3)cc12)c1ccc2c(c1)S(=O)(=O)CCC2
97%	103%	111%	84%	93%	91%	99%	87%	97%	127%	103%	COc1ccc([C@H](Cc2nnn[nH]2)NC(=O)c2ncnc3[nH]ccc23)cc1
99%	92%	117%	51%	87%	88%	94%	84%	86%	126%	100%	CC(C)[C@H](Nc1ncnc2[nH]ccc12)c1ccc2c(c1)S(=O)(=O)CCC2

Source: ChEMBL document CHEMBL5442741, “ASAP - In vitro kinase profile” (2024)
